In patent US20100040711A1, “ZINC-CARNOSINE -BASED TREATMENT FOR NON ULCER (FUNCTIONAL ) DYSPEPSIA & IRRITABLE BOWEL SYNDROME IN HUMANS AND OTHER ANIMALS” (priority 2008, published 2010):

Experiments:
[1] = tested on: post-infectious IBS; details: recent study, Dunlap et al. 2003; cited from earlier work
[2] = tested on: functional dyspepsia or irritable bowel syndrome; test: Veterinary case reports: dogs diagnosed with functional dyspepsia or irritable bowel syndrome given zinc-carnosine; format: in vivo; details: dog, 30 mg/day
From the text: Ellie, a three year old, sixteen pound West Highland Terrier presented to vet with visible discomfort, loose stools and intermittent diarrhea. […] The diagnosis of functional dyspepsia or irritable bowel syndrome made.
Katelyn, a six year old, fourteen pound Boston Terrier presented to vet with visible discomfort, diarrhea, vomiting and inappetence. […] Blood tests indicated no abnormalities and a stool samples indicated the dog was parasite free. The diagnosis of functional dyspepsia or irritable bowel syndrome made.

[3] = tested on: functional dyspepsia or irritable bowel syndrome; test: Veterinary case report: cat diagnosed with functional dyspepsia or irritable bowel syndrome given zinc-carnosine; format: in vivo; details: 15 mg BID
From the text: A five year old, eight pound Siamese cat presented to vet with severe diarrhea, severe visible discomfort, inappetence and losing weight. […] Blood tests indicated no abnormalities and a stool samples indicated the cat was parasite free. The diagnosis of functional dyspepsia or irritable bowel syndrome made.

[4] = based on current evidence; cited from earlier work
[5] = tested on: human umbilical vein endothelial cells; details: cited from earlier work
[6] = tested on: human foreskin fibroblast cells; details: cited from earlier work
[7] = tested on: human MCT3-E1 cells (osteoblasts); details: cited from earlier work
[8] = tested on: water immersion stress; details: cited from earlier work
[9] = tested on: HCl-ethanol gastric damage; details: cited from earlier work
[10] = tested on: TNBS model of colitis; details: cited from earlier work
[11] = tested on: gastric ulcer; details: clinical trials, versus placebo; cited from earlier work

Row | Molecule | efficacy for treating post-infectious IBS [1] | improvement of conditions (discomfort, diarrhea, vomiting, inappetence) ([2]; course during treatment) | symptoms at check up ([2]; four week check up) | improvement of condition (discomfort, loose stools, diarrhea) ([2]; two week and four week follow-up visits) | symptoms at check up ([3]; four week check up) | improvement of conditions (diarrhea, discomfort, inappetence, weight loss) ([3]; within seven days) | side effects [4] | stimulation of growth (proliferation) [5] | stimulation of growth (proliferation) [6] | stimulation of growth (proliferation) [7] | effect in animal model of gut ulceration and gross inflammation [8] | effect in animal model of gut ulceration and gross inflammation [9] | effect in animal model of gut ulceration and gross inflammation [10] | effect in treatment of gastric ulcer [11]
1 | C[C@]12C=CC(=O)C=C1CC[C@@H]1[C@@H]2[C@@H](O)C[C@@]2(C)[C@H]1CC[C@]2(O)C(=O)CO [predinisolone] | ineffective |  |  |  |  |  |  |  |  |  |  |  |  | 
2 | Zinc-Carnosine |  | conditions improved on a daily basis | No further symptoms | significant improvement | No further symptoms | conditions improved significantly | little or no side effects | able to stimulate growth (proliferation) | able to stimulate growth (proliferation) | able to stimulate growth (proliferation) | beneficial effects | beneficial effects | beneficial effects | beneficial effect above placebo
